Test results: ChEMBL document CHEMBL1201862, “PubChem BioAssay data set” (2004)
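A five-concentration, 48-hour dose response in 96-well plates underlies each endpoint, interpolated linearly between surrounding concentrations. GI50 marks 50% less growth.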 Activity calls are given as the source filed them. Rule as the data show it: active = GI50 up to about 1.1 µM and inactive = higher.

Experiments:
Assay in all cases: NCI-60 cell line screen, 48 h
A549 = test system: A549
BT-549 = test system: BT-549
CAKI-1 = test system: CAKI-1
COLO 205 = test system: COLO 205
HCT-116 = test system: HCT-116
HCT-15 = test system: HCT-15
HL-60 = test system: HL-60
K562 = test system: K562
MCF7 = test system: MCF7
MDA-MB-231 = test system: MDA-MB-231
MDA-MB-435 = test system: MDA-MB-435
MDA-N = test system: MDA-N
NCI-H226 = test system: NCI-H226
NCI-H23 = test system: NCI-H23
NCI-H522 = test system: NCI-H522
NCI/ADR-RES = test system: NCI/ADR-RES
SF-268 = test system: SF-268
SK-MEL-2 = test system: SK-MEL-2
TK-10 = test system: TK-10
UACC-257 = test system: UACC-257

Row | SMILES | GI50 (A549) | GI50 (BT-549) | GI50 (CAKI-1) | GI50 (COLO 205) | GI50 (HCT-116) | GI50 (HCT-15) [µM] | GI50 (HL-60) | GI50 (K562) | GI50 (MCF7) | GI50 (MDA-MB-231) | GI50 (MDA-MB-435) | GI50 (MDA-N) | GI50 (NCI-H226) | GI50 (NCI-H23) | GI50 (NCI-H522) | GI50 (NCI/ADR-RES) | GI50 (SF-268) | GI50 (SK-MEL-2) | GI50 (TK-10) | GI50 (UACC-257)
1 | OC(CC(CC(O)(C(F)(F)F)C(F)(F)F)=NN=C(CC(O)(C(F)(F)F)C(F)(F)F)CC(O)(C(F)(F)F)C(F)(F)F)(C(F)(F)F)C(F)(F)F | > 10 µM (inactive) | > 10 µM (inactive) | > 10 µM (inactive) | > 10 µM (inactive) | > 10 µM (inactive) | > 10 | > 10 µM (inactive) | > 10 µM (inactive) | > 10 µM (inactive) | > 10 µM (inactive) | > 10 µM (inactive) | > 10 µM (inactive) | > 10 µM (inactive) | > 10 µM (inactive) | > 10 µM (inactive) | > 10 µM (inactive) | > 10 µM (inactive) | > 10 µM (inactive) | > 10 µM (inactive) | > 10 µM (inactive)
2 | O=CC(O)C(O)C(O)C1CNC(=S)O1 (stereo not given) | > 100 µM (inactive) | > 100 µM (inactive) | > 100 µM (inactive) | > 100 µM (inactive) | > 100 µM (inactive) | > 100 | > 100 µM (inactive) | > 100 µM (inactive) | > 100 µM (inactive) | > 100 µM (inactive) | > 100 µM (inactive) | > 100 µM (inactive) | > 100 µM (inactive) | > 100 µM (inactive) | > 100 µM (inactive) | > 100 µM (inactive) | > 100 µM (inactive) | > 100 µM (inactive) | > 100 µM (inactive) | > 100 µM (inactive)
3 | CCCCCCCCCCCCCCCCCCOCC(COCCOCC[N+]1(CCCCCC(=O)[O-])CCCC1)Oc1ncccn1 (stereo not given) | 3.95 µM (inactive) | 7.29 µM (inactive) | 9.51 µM (inactive) | 1.11 µM (active) | 1.82 µM (inactive) | 12.8 | 0.395 µM (active) | 2.19 µM (inactive) | 4.45 µM (inactive) | 8.22 µM (inactive) | 8.79 µM (inactive) | 10.5 µM (inactive) | 11.2 µM (inactive) | 4.88 µM (inactive) | 1.34 µM (inactive) | 15.4 µM (inactive) | 3.51 µM (inactive) | 6.05 µM (inactive) | 4.06 µM (inactive) | 8.02 µM (inactive)
4 | O=C1NC(=O)C(c2c[nH]c3ccccc23)=C1c1cn(C(c2ccccc2)(c2ccccc2)c2ccccc2)cn1 | 3.14 µM (inactive) | 12.7 µM (inactive) | 35.4 µM (inactive) | 3.73 µM (inactive) | 3.34 µM (inactive) | 3.66 | 2.9 µM (inactive) | 4.2 µM (inactive) | 3.05 µM (inactive) | 12.8 µM (inactive) | 3.92 µM (inactive) | 4.75 µM (inactive) | 5.87 µM (inactive) | 6.35 µM (inactive) | 8.75 µM (inactive) | 4.29 µM (inactive) | 11.7 µM (inactive) | 11.2 µM (inactive) | 10.7 µM (inactive) | 11.2 µM (inactive)
5 | CCC12C=CCN3CCC4(c5cc(C(c6ccc(OC)cc6)C6Cc7ccccc7N6)c(OC)cc5N(C)C4C(O)(C(=O)OC)C1O)C32 (stereo not given) | 20.4 µM (inactive) | 19.9 µM (inactive) | 18.7 µM (inactive) | 8.36 µM (inactive) | 14.4 µM (inactive) | 22 | 1.72 µM (inactive) | 3.42 µM (inactive) | 5.19 µM (inactive) | 16.1 µM (inactive) | 12.7 µM (inactive) | 18.8 µM (inactive) | 32.7 µM (inactive) | 27 µM (inactive) | 16.4 µM (inactive) | 26.1 µM (inactive) | 44.6 µM (inactive) | 15.3 µM (inactive) | 22.9 µM (inactive) | 20.5 µM (inactive)
6 | COC12C(COC(=O)NCCO)C3=C(C(=O)C(C)=C(N)C3=O)N1CC1NC12 (stereo not given) | 7.66 µM (inactive) | 54.5 µM (inactive) | 2.77 µM (inactive) | 37.7 µM (inactive) | 18.9 µM (inactive) | 170 | 58.9 µM (inactive) | 103 µM (inactive) | 16 µM (inactive) | 233 µM (inactive) | 140 µM (inactive) | 86.1 µM (inactive) | 16.9 µM (inactive) | 4.94 µM (inactive) | 14.5 µM (inactive) | > 264 µM (inactive) | 11.6 µM (inactive) | 30.9 µM (inactive) | 83.2 µM (inactive) | 69.7 µM (inactive)
7 | O=C(CCCn1ccnc1[N+](=O)[O-])NCCn1ccnc1 | > 100 µM (inactive) | > 100 µM (inactive) | > 100 µM (inactive) | 67 µM (inactive) | > 100 µM (inactive) | > 100 | > 100 µM (inactive) | > 100 µM (inactive) | > 100 µM (inactive) | > 100 µM (inactive) | > 100 µM (inactive) | > 10 µM (inactive) | > 100 µM (inactive) | > 100 µM (inactive) | > 100 µM (inactive) | > 100 µM (inactive) | > 100 µM (inactive) | > 100 µM (inactive) | > 100 µM (inactive) | > 100 µM (inactive)
8 | COc1cc(S(=O)(=O)Nc2nc(-c3ccc(N4C(=O)/C(=C\c5cccs5)N=C4c4ccccc4)cc3)cs2)ccc1Cl | > 100 µM (inactive) | 34.5 µM (inactive) | > 100 µM (inactive) | > 100 µM (inactive) | 49.2 µM (inactive) | > 100 | 36.7 µM (inactive) | 64.9 µM (inactive) | 40 µM (inactive) | 29.8 µM (inactive) | 55.6 µM (inactive) | 43.1 µM (inactive) | > 100 µM (inactive) | 34.8 µM (inactive) | 29.4 µM (inactive) | > 100 µM (inactive) | 18.7 µM (inactive) | 29.2 µM (inactive) | > 100 µM (inactive) | 71.3 µM (inactive)
